This passage reports MIC results from patent US4607012A, “Antibiotic SB 22484” (Gruppo Lepetit S.p.A., priority 1983, dated 1986).

Structures are written as SMILES. A value given as a limit tells only on which side of the number the result lay.

Test [1] has as its system N. gonorrhoeae L 1599. In words: in vitro antibacterial activity (standard dilution test). The test is classed as cell-based. To be noted: Neisseria gonorrhoeae, L1599; N. gonorrhoeae L 1599, clinically isolated, penicillinase producing; GC agar base + 1% Iso-Vitalex, CO2 enriched, 18-24 h, 37° C. On the procedure: (§1) Iso-Sensitest broth (Oxoid) and Todd-Hewitt broth (Difco) are used for staphylococci and streptococci, respectively, Neisseriae strains are cultured on GC agar base (Difco)+1% Iso-Vitalex (BBL) and Hemophylus is cultured on GC agar base (Difco)+1% Iso-Vitalex (BBL)+1% hemoglobin (Difco). Broth cultures are diluted so that the final inoculum is about 10^4 -10^5 colony forming units/ml (CFU/ml). […] Neisseriae strains are incubated in a CO2 enriched atmosphere.

The subject of test [2] is N. gonorrhoeae L 1596. The test is described as above. The class given is cell-based. Conditions: Neisseria gonorrhoeae, L1596; N. gonorrhoeae L 1596, clinically isolated, resistant to spectinomycin; GC agar base + 1% Iso-Vitalex, CO2 enriched, 18-24 h, 37° C. On the procedure:
as §1

By MIC is commonly meant the least concentration at which growth counts as inhibited. Consider `CC1(C)S[C@@H]2[C@H](NC(=O)Cc3ccccc3)C(=O)N2[C@H]1C(=O)O` [penicillin], for which the MIC in test [1] is > 50 µg/mL.

For `CN[C@@H]1[C@H](O)[C@H](NC)[C@H]2O[C@@]3(O)C(=O)C[C@@H](C)O[C@H]3O[C@@H]2[C@H]1O` [spectinomycin], the minimum inhibitory concentration (MIC) in test [2] was > 12 µg/mL.
